Patent US12577245B2, “Sulfonyl benzamide derivatives as Bcl-2 inhibitors” (ASCENTAGE PHARMA (SUZHOU) CO., LTD., priority 2021, dated 2026)

Target: Bcl-2 G101V (Homo sapiens, UniProt P10415, G101V)
Experiment: Bcl-2 G101V inhibition, fluorescence polarization (Flu-BIM tracer) binding assay
Conditions: FP; 20 nM Bcl2, 5 nM Flu-BIM, 1 h incubation; read-out: Bcl-2 G101V (FP)

CC1(C)CCC(CN2CCN(c3ccc(C(=O)NS(=O)(=O)c4ccc(NC[C@H]5COCCO5)c([N+](=O)[O-])c4)c(Oc4cnc5[nH]ccc5c4)c3)CC2)=C(c2cc(CN3CCOCC3)cs2)C1 [Example 22, (S)—N-((4-(((1,4-dioxan-2-yl)methyl)amino)-3-nitrophenyl)sulfonyl)-2-((1H-pyrrolo[2,3-b]pyridin-5-yl)oxy)-4-(4-((4,4-dimethyl-2-(4-(morpholinomethyl)thiophen-2-yl)cyclohex-1-en-1-yl)methyl)piperazin-1-yl)benzamide]
IC50: 0.0428 µM

CC1(C)CCC(CN2CCN(c3ccc(C(=O)NS(=O)(=O)c4ccc(NC[C@H]5CC[C@@](C)(O)CC5)c([N+](=O)[O-])c4)c(Oc4cnc5[nH]ccc5c4)c3)CC2)=C(c2cc(CN3CCOCC3)cs2)C1 [Example 23, 2-((1H-pyrrolo[2,3-b]pyridin-5-yl)oxy)-4-(4-((4,4-dimethyl-2-(4-(morpholinomethyl)thiophen-2-yl)cyclohex-1-en-1-yl)methyl)piperazin-1-yl)-N-((4-((((1s,4s)-4-hydroxy-4-methylcyclohexyl)methyl)amino)-3-nitrophenyl)sulfonyl)benzamide]
IC50: 0.0282 µM

CC1(C)CCC(CN2CCN(c3ccc(C(=O)NS(=O)(=O)c4ccc(NC[C@H]5CC[C@](C)(O)CC5)c([N+](=O)[O-])c4)c(Oc4cnc5[nH]ccc5c4)c3)CC2)=C(c2cc(CN3CCOCC3)cs2)C1 [Example 24, 2-((1H-pyrrolo[2,3-b]pyridin-5-yl)oxy)-4-(4-((4,4-dimethyl-2-(4-(morpholinomethyl)thiophen-2-yl)cyclohex-1-en-1-yl)methyl)piperazin-1-yl)-N-((4-((((1r,4r)-4-hydroxy-4-methylcyclohexyl)methyl)amino)-3-nitrophenyl)sulfonyl)benzamide]
IC50: 0.0301 µM

CC1(C)CCC(CN2CCN(c3ccc(C(=O)NS(=O)(=O)c4ccc(NCC5CCOCC5)c([N+](=O)[O-])c4)c(Oc4cnc5[nH]ccc5c4)c3)CC2)=C(c2ccsc2CN2CCOCC2)C1 [Example 25, 2-((1H-pyrrolo[2,3-b]pyridin-5-yl)oxy)-4-(4-((4,4-dimethyl-2-(2-(morpholinomethyl)thiophen-3-yl)cyclohex-1-en-1-yl)methyl)piperazin-1-yl)-N-((3-nitro-4-(((tetrahydro-2H-pyran-4-yl)methyl)amino)phenyl)sulfonyl)benzamide]
IC50: 0.0391 µM

CC1(C)CCC(CN2CCN(c3ccc(C(=O)NS(=O)(=O)c4ccc(NCC5CCOCC5)c([N+](=O)[O-])c4)c(Oc4cnc5[nH]ccc5c4)c3)CC2)=C(c2ccc(CN3CCOCC3)s2)C1 [Example 26, 2-((1H-pyrrolo[2,3-b]pyridin-5-yl)oxy)-4-(4-((4,4-dimethyl-2-(5-(morpholinomethyl)thiophen-2-yl)cyclohex-1-en-1-yl)methyl)piperazin-1-yl)-N-((3-nitro-4-(((tetrahydro-2H-pyran-4-yl)methyl)amino)phenyl)sulfonyl)benzamide]
IC50: 0.0578 µM

CC1(C)CCC(CN2CCN(c3ccc(C(=O)NS(=O)(=O)c4ccc(NC[C@H]5COCCO5)c([N+](=O)[O-])c4)c(Oc4cnc5[nH]ccc5c4)c3)CC2)=C(c2cc(CN3CCC(N4CCOCC4)CC3)cs2)C1 [Example 28, (S)—N-((4-(((1,4-dioxan-2-yl)methyl)amino)-3-nitrophenyl)sulfonyl)-2-((1H-pyrrolo[2,3-b]pyridin-5-yl)oxy)-4-(4-((4,4-dimethyl-2-(4-((4-morpholinopiperidin-1-yl)methyl)thiophen-2-yl)cyclohex-1-en-1-yl)methyl)piperazin-1-yl)benzamide]
IC50: 0.047 µM

C[C@@H]1CN(Cc2csc(C3=C(CN4CCN(c5ccc(C(=O)NS(=O)(=O)c6ccc(NC[C@H]7COCCO7)c([N+](=O)[O-])c6)c(Oc6cnc7[nH]ccc7c6)c5)CC4)CCC(C)(C)C3)c2)C[C@H](C)N1C [Example 29, N-((4-((((S)-1,4-dioxan-2-yl)methyl)amino)-3-nitrophenyl)sulfonyl)-2-((1H-pyrrolo[2,3-b]pyridin-5-yl)oxy)-4-(4-((4,4-dimethyl-2-(4-(((3S,5R)-3,4,5-trimethylpiperazin-1-yl)methyl)thiophen-2-yl)cyclohex-1-en-1-yl)methyl)piperazin-1-yl)benzamide]
IC50: 0.0713 µM

CC1(C)CCC(CN2CCN(c3ccc(C(=O)NS(=O)(=O)c4ccc(NC[C@H]5COCCO5)c([N+](=O)[O-])c4)c(Oc4cnc5[nH]ccc5c4)c3)CC2)=C(c2cc(CN3CCN4CCOC[C@H]4C3)cs2)C1 [Example 30, N-((4-((((S)-1,4-dioxan-2-yl)methyl)amino)-3-nitrophenyl)sulfonyl)-2-((1H-pyrrolo[2,3-b]pyridin-5-yl)oxy)-4-(4-((2-(4-(((R)-hexahydropyrazino[2,1-c][1,4]oxazin-8(1H)-yl)methyl)thiophen-2-yl)-4,4-dimethylcyclohex-1-en-1-yl)methyl)piperazin-1-yl)benzamide]
IC50: 0.066 µM

CC1(C)CCC(CN2CCN(c3ccc(C(=O)NS(=O)(=O)c4ccc(NC[C@H]5COCCO5)c([N+](=O)[O-])c4)c(Oc4cnc5[nH]ccc5c4)c3)CC2)=C(c2cc(CN3CCN(C4COC4)CC3)cs2)C1 [Example 31, (S)—N-((4-(((1,4-dioxan-2-yl)methyl)amino)-3-nitrophenyl)sulfonyl)-2-((1H-pyrrolo[2,3-b]pyridin-5-yl)oxy)-4-(4-((4,4-dimethyl-2-(4-((4-(oxetan-3-yl)piperazin-1-yl)methyl)thiophen-2-yl)cyclohex-1-en-1-yl)methyl)piperazin-1-yl)benzamide]
IC50: 0.0592 µM

CC1(C)CCC(CN2CCN(c3ccc(C(=O)NS(=O)(=O)c4ccc(NC[C@H]5COCCO5)c([N+](=O)[O-])c4)c(Oc4cnc5[nH]ccc5c4)c3)CC2)=C(c2cc(CN3CCC(F)(F)CC3)cs2)C1 [Example 32, (S)—N-((4-(((1,4-dioxan-2-yl)methyl)amino)-3-nitrophenyl)sulfonyl)-2-((1H-pyrrolo[2,3-b]pyridin-5-yl)oxy)-4-(4-((2-(4-((4,4-difluoropiperidin-1-yl)methyl)thiophen-2-yl)-4,4-dimethylcyclohex-1-en-1-yl)methyl)piperazin-1-yl)benzamide]
IC50: 0.0257 µM

CC1(C)CCC(CN2CCN(c3ccc(C(=O)NS(=O)(=O)c4ccc(NC[C@H]5COCCO5)c([N+](=O)[O-])c4)c(Oc4cnc5[nH]ccc5c4)c3)CC2)=C(c2cc(-c3ccc(F)cc3)cs2)C1 [Example 33, (S)—N-((4-(((1,4-dioxan-2-yl)methyl)amino)-3-nitrophenyl)sulfonyl)-2-((1H-pyrrolo[2,3-b]pyridin-5-yl)oxy)-4-(4-((2-(4-(4-fluorophenyl)thiophen-2-yl)-4,4-dimethylcyclohex-1-en-1-yl)methyl)piperazin-1-yl)benzamide]
IC50: 0.0331 µM

CC1(C)CCC(CN2CCN(c3ccc(C(=O)NS(=O)(=O)c4ccc(NCC5CCOCC5)c([N+](=O)[O-])c4)c(Oc4cnc5[nH]ccc5c4)c3)CC2)=C(c2cc(-c3ccccc3)cs2)C1 [Example 34, 2-((1H-pyrrolo[2,3-b]pyridin-5-yl)oxy)-4-(4-((4,4-dimethyl-2-(4-phenylthiophen-2-yl)cyclohex-1-en-1-yl)methyl)piperazin-1-yl)-N-((3-nitro-4-(((tetrahydro-2H-pyran-4-yl)methyl)amino)phenyl)sulfonyl)benzamide]
IC50: 0.0479 µM

CC1(C)CCC(CN2CCN(c3ccc(C(=O)NS(=O)(=O)c4ccc(NCC5CCOCC5)c([N+](=O)[O-])c4)c(Oc4cnc5[nH]ccc5c4)c3)CC2)=C(c2ccsc2-c2ccccc2)C1 [Example 35, 2-((1H-pyrrolo[2,3-b]pyridin-5-yl)oxy)-4-(4-((4,4-dimethyl-2-(2-phenylthiophen-3-yl)cyclohex-1-en-1-yl)methyl)piperazin-1-yl)-N-((3-nitro-4-(((tetrahydro-2H-pyran-4-yl)methyl)amino)phenyl)sulfonyl)benzamide]
IC50: 0.0476 µM

CC1(C)CCC(CN2CCN(c3ccc(C(=O)NS(=O)(=O)c4ccc(NC[C@H]5CC[C@@](C)(O)CC5)c([N+](=O)[O-])c4)c(Oc4cnc5[nH]ccc5c4)c3)CC2)=C(c2cc(-c3ccc(F)cc3)cs2)C1 [Example 36, 2-((1H-pyrrolo[2,3-b]pyridin-5-yl)oxy)-4-(4-((2-(4-(4-fluorophenyl)thiophen-2-yl)-4,4-dimethylcyclohex-1-en-1-yl)methyl)piperazin-1-yl)-N-((4-((((1s,4s)-4-hydroxy-4-methylcyclohexyl)methyl)amino)-3-nitrophenyl)sulfonyl)benzamide]
IC50: 0.0462 µM

CC1(C)CCC(CN2CCN(c3ccc(C(=O)NS(=O)(=O)c4ccc(NC[C@H]5CC[C@](C)(O)CC5)c([N+](=O)[O-])c4)c(Oc4cnc5[nH]ccc5c4)c3)CC2)=C(c2cc(-c3ccc(F)cc3)cs2)C1 [Example 37, 2-((1H-pyrrolo[2,3-b]pyridin-5-yl)oxy)-4-(4-((2-(4-(4-fluorophenyl)thiophen-2-yl)-4,4-dimethylcyclohex-1-en-1-yl)methyl)piperazin-1-yl)-N-((4-((((1r,4r)-4-hydroxy-4-methylcyclohexyl)methyl)amino)-3-nitrophenyl)sulfonyl)benzamide]
IC50: 0.0349 µM

CC1(C)CCC(CN2CCN(c3ccc(C(=O)NS(=O)(=O)c4ccc(NC[C@H]5COCCO5)c([N+](=O)[O-])c4)c(Oc4cnc5[nH]ccc5c4)c3)CC2)=C(c2cc(-c3ccc(Cl)cc3)cs2)C1 [Example 38, (S)—N-((4-(((1,4-dioxan-2-yl)methyl)amino)-3-nitrophenyl)sulfonyl)-2-((1H-pyrrolo[2,3-b]pyridin-5-yl)oxy)-4-(4-((2-(4-(4-chlorophenyl)thiophen-2-yl)-4,4-dimethylcyclohex-1-en-1-yl)methyl)piperazin-1-yl)benzamide]
IC50: 0.0354 µM

CC(C)c1ccccc1-c1csc(C2=C(CN3CCN(c4ccc(C(=O)NS(=O)(=O)c5ccc(NC[C@H]6COCCO6)c([N+](=O)[O-])c5)c(Oc5cnc6[nH]ccc6c5)c4)CC3)CCC(C)(C)C2)c1 [Example 39, (S)—N-((4-(((1,4-dioxan-2-yl)methyl)amino)-3-nitrophenyl)sulfonyl)-2-((1H-pyrrolo[2,3-b]pyridin-5-yl)oxy)-4-(4-((2-(4-(2-isopropylphenyl)thiophen-2-yl)-4,4-dimethylcyclohex-1-en-1-yl)methyl)piperazin-1-yl)benzamide]
IC50: 0.036 µM
